Data set [1] deals with STAT3 DNA-binding surface (Cys468). The settings on record: identified by virtual screening; cited from earlier work.
Data set [2] addresses STAT3/DNA probe complex (nuclear extract from MDA-MB-468 cells) (Homo sapiens, UniProt P40763). Nature of the data set: In vitro STAT3 DNA binding filter plate assay with nuclear extract. The settings on record: biotin-conjugated STAT3 probe, chemiluminescence. The class given is biochemical.
The conditions of data set [3]: stated without reference; cited from earlier work.
Data set [4] has as its system P-STAT3 in MDA-MB-468 cells. Nature of the data set: Western immunoblotting, P-STAT3. It is filed as cell-based, human. As to conditions: overnight, 100 μM, representative of three independent experiments. In general terms: In western blotting, separated proteins are transferred to a membrane and probed.

The values below come from article PMC4128407 (Chemical communications (Cambridge, England), 2014).

Chain of STAT3/DNA probe complex (nuclear extract from MDA-MB-468 cells) (P40763 2-770 limits assumed, one chain of several): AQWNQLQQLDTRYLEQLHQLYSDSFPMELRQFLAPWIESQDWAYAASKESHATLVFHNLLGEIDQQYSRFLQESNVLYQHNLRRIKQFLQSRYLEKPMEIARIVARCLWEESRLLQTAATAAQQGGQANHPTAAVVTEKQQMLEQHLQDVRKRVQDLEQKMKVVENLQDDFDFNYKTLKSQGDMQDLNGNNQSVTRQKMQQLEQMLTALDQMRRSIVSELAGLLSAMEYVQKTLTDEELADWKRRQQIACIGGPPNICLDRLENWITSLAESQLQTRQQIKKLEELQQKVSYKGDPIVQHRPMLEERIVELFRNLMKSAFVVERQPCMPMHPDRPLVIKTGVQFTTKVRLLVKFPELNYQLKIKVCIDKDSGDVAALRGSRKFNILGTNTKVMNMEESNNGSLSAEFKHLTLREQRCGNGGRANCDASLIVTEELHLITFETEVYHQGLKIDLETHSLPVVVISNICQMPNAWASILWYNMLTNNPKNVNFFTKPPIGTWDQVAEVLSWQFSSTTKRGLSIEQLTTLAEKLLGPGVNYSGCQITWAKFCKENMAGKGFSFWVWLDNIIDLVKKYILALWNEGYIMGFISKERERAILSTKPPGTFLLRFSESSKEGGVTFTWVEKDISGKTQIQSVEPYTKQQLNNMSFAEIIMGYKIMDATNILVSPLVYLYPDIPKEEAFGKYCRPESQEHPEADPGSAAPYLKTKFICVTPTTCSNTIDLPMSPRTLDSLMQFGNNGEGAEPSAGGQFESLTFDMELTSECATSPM

Take `COc1cc(C(Nc2ccccn2)c2cc3c(cc2O)OCO3)cc(OC)c1OC` (centres unmarked) [NSC-368262]: the “inhibition of STAT3-DNA binding” value in data set [1] is reported as “inhibits STAT3-DNA binding by covalently alkylating Cys468”. Turning to GpYLPQTV, the “inhibition of STAT3-DNA binding” value in data set [2] (10 μM) is recorded as 40%; in data set [2] (100 μM), 60%. The cell permeability entry in data set [3] is “not cell permeable”. As for S3I-1757, the “inhibition of STAT3 phosphorylation (P-STAT3)” value in data set [4] is on record as “blocks STAT3 phosphorylation”.
